The values below are quoted from earlier work in patent publication US20250176603A1, “Vegetable-Based Food Product” (L-CONE SP. Z O. O., priority 2023, published 2025).

“Also recorded” adds a separate entry of the source.

The test system of data set [1] is diethylnitrosamine-induced hepatocarcinogenesis. Particulars: rats.
The subject of data set [2] is lipopolysaccharide (LPS)-activated BV2 microglia.
The conditions of data set [3]: in vivo.
A further data set deals with Ehrlich ascites tumor. Particulars: mice.
Data set [4] relates to pancreatic cancer patients resistant to gemcitabine chemotherapy. The settings on record: 8 g/day in a divided dose for 11 months.
In data set [5] the test system is prostate cancer patients undergoing radiotherapy.
In a further data set the test system is TPOAb antibody. Particulars: 200 ug for 3 months.
The subject of data set [6] is acetic acid-induced ulcerative colitis. Particulars: oral administration.
The test system of a further data set is DSS-induced colitis. The settings on record: DSS-induced colitis model.

`C=CCC(=NOS(=O)(=O)O)S[C@@H]1O[C@H](CO)[C@@H](O)[C@H](O)[C@H]1O` (stereo in doubt) [Sinigrin]: in [1], the diethylnitrosamine-induced hepatocarcinogenesis entry was “inhibited”. On to `O=CC=Cc1ccccc1` [Cinnamaldehyde], for which the “production and expression of NO, IL-1b, IL-6 and TNF-a” value in data set [2] is recorded as “decrease”. Moreover, the tau protein aggregation result in the data set with tau protein is reported as “potential in inhibiting”. For `C[S+]([O-])CCCCN=C=S` (centres unmarked) [Sulforaphane], the level of bioavailability in [3] is 74%. Consider `C=CCN=C=S` [allyl isothiocyanate], for which the cytotoxic effect result in the data set with bladder and in the data set on lung cancer cells was “cytotoxic effect” each time. Besides, in the data set with Ehrlich ascites tumor, the “Ehrlich ascites tumor growth” value was “inhibited”. Take `COc1cc(/C=C/C(=O)CC(=O)/C=C/c2ccc(O)c(OC)c2)ccc1O` [curcumin]: the “chances of longer survival” value in data set [4] was “significantly increased; also recorded: increased significantly”. In addition, the “radiation side effects and therapeutic efficacy” value in data set [5] was “alleviate the side effects of radiation and enhance its therapeutic efficacy; also recorded: mitigate radiation side effects and enhance therapeutic efficacy”. Consider `O=C(/C=C/C=C/c1ccc2c(c1)OCO2)N1CCCCC1` [piperine], for which the cytotoxic effects entry in the data set on K-562 cells is reported as “strong cytotoxic effects”. For `C[Se]CC[C@H](N)C(=O)O` [selenomethionine], the TPOAb antibody levels result in the data set on TPOAb antibody is reported as “significantly reduced”.

For the molecule `COc1cc(C2Oc3cc([C@H]4Oc5cc(O)cc(O)c5C(=O)[C@@H]4O)ccc3OC2CO)ccc1O` (some centres unmarked) [silybin], in data set [6], the “IL-6 and TNF-α activity” value is “significant reduction”. On to `O=[Se](=O)(O)O` [sodium selenate], for which, in the data set on TPOAb antibody, the TPOAb antibody levels entry is reported as “significantly reduced”. For `O=C1c2c(O)cc(O)cc2O[C@H](c2ccc(O)c(O)c2)[C@H]1O` [taxifolin], the NF-κB activation result with DSS-induced colitis is “reduce”.
